Measured values as given in patent publication EP0115547B1 (priority 1983, dated 1984).

Test system: T7-Phagen
Details: pH 7

## CS(=O)(=O)OCCNCC(O)C(O)CNCCOS(C)(=O)=O (stereo not shown) [1,4-Di-{2'-(methylsulfonyl)-oxy-äthylamino}-1,4-di-{desoxy}-ery-thrit-dimethylsulfat]
  Kehrwert der pyrimidin-dimeräquivalenten Dosis: 111 1 Mol . Minute

## CN(Cc1cnc2nc(N)nc(N)c2n1)c1ccc(C(=O)N[C@@H](CCC(=O)O)C(=O)O)cc1 [4-Desoxy-4-amino-10-methylfolsäure]
  Kehrwert der pyrimidin-dimeräquivalenten Dosis: 11 1 Mol . Minute

## CC(=O)N1CC1 [N-(Acetyl)-äthylenimin]
  Kehrwert der pyrimidin-dimeräquivalenten Dosis: 33 1 Mol . Minute

## CN(N=O)C(N)=O [Nitrosomethylharnstoff]
  Kehrwert der pyrimidin-dimeräquivalenten Dosis: 0,76 1 Mol . Minute

## Cc1ncc(C[n+]2csc(CCO)c2C)c(N)n1 [Vitamin B1]
  1n [N(t)/N(O)]=-1 zugehörige Bebrütungs- beziehungsweise Inkubationszeit: 291 Minuten
  Kehrwert der pyrimidindimeräquivalenten Dosis: 0,03 l/Mol· Minute
  pyrimidindimeräquivalente Dosis: 29 Mol - Minute/I
